Assay results from publication PMC12481929, “Oral delivery of teriparatide utilizing biocompatible transferrin-engineered MOF nanoparticles for osteoporosis therapy” (Materials Today Bio, 2025).

Assays:
[1] = In vivo pharmacokinetics, serum TRP by ELISA; conditions: osteoporotic mice
Protocol: The pharmacokinetics and pharmacodynamics of M@P@T NPs were evaluated using the osteoporosis mice model. Mice were randomly divided into three experimental groups, with five mice per group: TRP SC, M@P, and M@P@T. M@P NPs (200 μg kg^−1) and M@P@T NPs (200 μg kg^−1) were administered by oral gavage, while TRP (20 μg kg^−1) was injected subcutaneously. Serum TRP concentrations were measured using an ELISA kit. Blood samples were collected at 0, 0.5, 1, 1.5, 2, 3, 6, 8, and 12 h post-administration to determine TRP concentration. The area under the serum TRP concentration−time curve (AUC) was calculated to determine the relative bioavailability of M@P@T. The pharmacokinetic parameters of M@P@T were then compared to those of TRP SC and M@P groups.

[2] = test system: osteoporosis model mice (OVX); assay: New bone formation in vivo, micro-CT of femurs; conditions: one month, M@P@T 200 μg kg^−1 oral, TRP 20 μg kg^−1 SC daily
Protocol: This study was approved by the Animal Ethics Committee of Wuhan University (ethics number WP20230395), and all animal experiments were conducted in accordance with the Regulations on the Management of Experimental Animals in China and the guidelines of the Committee for Animal Care and Use at Wuhan University. In this study, 6-week-old female C57 mice (purchased from Beijing HFK Bioscience Co., Ltd.) were randomly divided into five groups (Sham, OVX, M@P, M@P@T, and TRP SC). Bilateral ovariectomy was performed via a dorsal incision to establish an osteoporosis model. In the Sham group, the same volume of fat tissue was removed bilaterally. After surgery, the mice were regularly given penicillin and pain medication. All mice were housed in a comfortable environment at 22–25 °C and […] and had free access to food and water. The successful construction of the osteoporosis model was confirmed two months after surgery via micro–computed tomography (micro-CT).
To validate the in vivo efficacy of the NPs, we measured various bone parameters related to the formation of new bone and its internal structure using micro-CT (SkyScan 1276) following the ASBMR reporting standards. […] The efficacy of new bone formation was assessed by comparing these parameters determined from the control and treatment groups.

CC[C@H](C)[C@H](NC(=O)[C@H](CCC(=O)O)NC(=O)[C@H](CO)NC(=O)[C@@H](NC(=O)[C@@H](N)CO)C(C)C)C(=O)N[C@@H](CCC(N)=O)C(=O)N[C@@H](CC(C)C)C(=O)N[C@@H](CCSC)C(=O)N[C@@H](Cc1cnc[nH]1)C(=O)N[C@@H](CC(N)=O)C(=O)N[C@@H](CC(C)C)C(=O)NCC(=O)N[C@@H](CCCCN)C(=O)N[C@@H](Cc1cnc[nH]1)C(=O)N[C@@H](CC(C)C)C(=O)N[C@@H](CC(N)=O)C(=O)N[C@@H](CO)C(=O)N[C@@H](CCSC)C(=O)N[C@@H](CCC(=O)O)C(=O)N[C@@H](CCCN=C(N)N)C(=O)N[C@H](C(=O)N[C@@H](CCC(=O)O)C(=O)N[C@@H](Cc1c[nH]c2ccccc12)C(=O)N[C@@H](CC(C)C)C(=O)N[C@@H](CCCN=C(N)N)C(=O)N[C@@H](CCCCN)C(=O)N[C@@H](CCCCN)C(=O)N[C@@H](CC(C)C)C(=O)N[C@@H](CCC(N)=O)C(=O)N[C@@H](CC(=O)O)C(=O)N[C@H](C(=O)N[C@@H](Cc1cnc[nH]1)C(=O)N[C@@H](CC(N)=O)C(=O)N[C@@H](Cc1ccccc1)C(=O)O)C(C)C)C(C)C [TRP, teriparatide]
time to return to the baseline level ([1]; 20 μg kg^−1 SC): ≤ 2 h | Tmax ([1]; mouse, in vivo, 20 ug/kg, 20 μg kg^−1 SC, read-out: time of peak plasma concentration of TRP): 30 min | AUC(0-t) ([1]; mouse, sc, 20 ug/kg, n = 5, TRP 20 µg/kg s.c., M@P and M@P@T 200 µg/kg oral, serum TRP ELISA, 0-12 h, mean ± SD): 0.117 ± 0.0112 ng·h/mL | F, relative bioavailability ([1]; n = 5, relative to TRP 20 µg/kg s.c., oral 200 µg/kg): 100% | new bone formation (3D reconstruction) [2]: more new bone formation than the other groups
